Data as given in patent US8637321B2, “Lipidomics approaches for central nervous system disorders” (priority 2005, dated 2014).

What was measured:
[1] = cited from earlier work; for effect on serum lipids / effects on serum glucose: in vivo; for weight gain, mean increases during the first year of therapy: prospective data; for risk of DM / metabolic effect: patients with schizophrenia
[2] = tested on: patients with schizophrenia; test: plasma lipid profiling pre- and post-treatment with antipsychotics; format: in vivo, human; for CE18:3n3 I/D: key: I: increase; D: decrease; for CE18:3n6 I/D: key: I: increase; D: decrease; for CE20:3n6 I/D: key: I: increase; D: decrease; for CE20:5n3 I/D: key: I: increase; D: decrease; for FA18:0 I/D: key: I: increase; D: decrease; for FA20:4n6 I/D: key: I: increase; D: decrease; for FA22.1n9 I/D: key: I: increase; D: decrease; for FASAT I/D: key: I: increase; D: decrease; for FCLC I/D: key: I: increase; D: decrease; for LY20:3n6 I/D: key: I: increase; D: decrease; for LY20:3n9 I/D: key: I: increase; D: decrease; for LY20:4n3 I/D: key: I: increase; D: decrease; for LY20:5n3 I/D: key: I: increase; D: decrease; for PC.n9 I/D: key: I: increase; D: decrease; for PC18:0 I/D: key: I: increase; D: decrease; for PC18:1n9 I/D: key: I: increase; D: decrease; for PC20:2n6 I/D: key: I: increase; D: decrease; for PC20:3n6 I/D: key: I: increase; D: decrease; for PC20:3n9 I/D: key: I: increase; D: decrease; for PC20:4n3 I/D: key: I: increase; D: decrease; for PC20:5n3 I/D: key: I: increase; D: decrease; for PC22:0 I/D: key: I: increase; D: decrease; for PC22:4n6 I/D: key: I: increase; D: decrease; for PCLC I/D: key: I: increase; D: decrease; for PE18:3n6 I/D: key: I: increase; D: decrease; for PE20:3n6 I/D: key: I: increase; D: decrease; for PE20:3n9 I/D: key: I: increase; D: decrease; for PE20:5n3 I/D: key: I: increase; D: decrease; for PE22:5n6 I/D: key: I: increase; D: decrease; for PELC I/D: key: I: increase; D: decrease; for SP14:0 I/D: key: I: increase; D: decrease; for SP20:3n6 I/D: key: I: increase; D: decrease; for SPSAT I/D: key: I: increase; D: decrease; for TG14:0 I/D: key: I: increase; D: decrease; for TG18:0 I/D: key: I: increase; D: decrease; for TG20:1n9 I/D: key: I: increase; D: decrease; for TG20:3n6 I/D: key: I: increase; D: decrease; for TG20:4n3 I/D: key: I: increase; D: decrease; for TGLC I/D: key: I: increase; D: decrease
Excerpt: (§1) Fifty male and female patients were recruited in two studies for metabolic profiling (Table VI and Table VII for demographics). Subjects ranged in age from 18 to 60 years and met the following inclusion criteria: a) DSM-IV criteria for schizophrenia, schizophreniform disorder, or schizoaffective disorder; b) newly hospitalized for a psychotic exacerbation in the setting of no antipsychotic treatment for at least 3 weeks prior to admission; and c) provided signed informed consent. Patients with psychoses due to psychoactive substance abuse or an underlying medical condition were excluded. Patients who were receiving treatment for diabetes mellitus or hyperlipidemia were also excluded.
The choice and dose of antipsychotic medication was based on the doctor's judgment. […] The treatment duration was 2-3 weeks. […] The mean duration of therapy was about 2 weeks for all 3 drugs in Study II. The drug groups were otherwise generally similar in severity of disease and physical characteristics (Table VI and Table VII). The 2-3 week duration permits the study of acute early effects.
All blood samples were drawn from subjects in the early morning after overnight fasting. Blood was drawn into vacutainer tubes containing sodium heparin, immediately placed on ice, and within 10 minutes, the blood was centrifuged and the plasma was transferred into polypropylene tubes and stored in a −30° C. freezer. All baseline samples were drawn prior to starting antipsychotic treatment in the study. If a patient had received a dose of an antipsychotic during the referral process (e.g., because of agitation when initially seen in a local emergency department), drawing of baseline plasma samples was delayed for 2-3 days. Follow-up samples were drawn after patients had received an average of 2-3 weeks of acute antipsychotic treatment.
A comprehensive assessment of plasma lipid profiles was performed (Lipomics Technologies, West Sacramento, Calif.) according to established methods (Watkins, et al. (2002) J. Lipid Res. 43(11):1809-17). Quantitative measurements of fatty acids in various lipid classes were determined as nmol fatty acid/gram of plasma. Lipid classes included cholesterol esters (CE), free cholesterol (FC), triacylglycerols (TG), diacylglycerols (DG), free fatty acids (FA), lysophosphatidylcholine (LY), phosphatidylcholine (PC), and phosphatidylethanolamine (PE). Lipid metabolites are identified by the lipid class and the fatty acid moiety. In the context of this invention, fatty acids are identified first by the number of carbons in the molecule (e.g., 20), the number of double bonds in the molecule (e.g., 4), and lastly the position of the double bonds (e.g., n6). To illustrate, PC20:4n6 denotes a phosphatidylcholine molecule containing a 20 carbon fatty acid with 4 double bonds at the n6 position.
Significant differences between pre- and post-drug treatment were assessed by paired t-tests. Evaluation of response to drug was assessed by two-way ANOVA. All statistics were done using R with the following functions: t.test, anova, prcomp, and g/m (Team RDC (2005) R: A language and environment for statistical computing. R Foundation for Statistical Computing). Before beginning statistical analyses, change detection was used to determine if observed signals were greater than that which could be expected by chance (noise). The chance distribution of p-values was determined by permuting the outcome groupings (Golub, et al. (1999) Science 286(5439):531-7). Briefly, P values for the appropriate comparison were calculated for each metabolite using a Student's t-test. The metabolites were ranked by p value from smallest to largest. The log of the rank versus the log of the p value for each comparison of interest was plotted and is represented by a colored line. The distribution of p values expected by chance at each rank is indicated by the shaded area. […]

[3] = tested on: patients with schizophrenia; test: Clinical Global Impressions (CGI) Scale psychopathology assessment; format: in vivo, human; settings: means and standard error; for CGI Affective, Post / CGI Negative, Post / CGI Positive, Post: CGI Scale 1 to 7, higher scores greater severity; for CGI Change, Post: overall global change rating at follow-up (1-2 responders, 3-6 non-responders)
Excerpt: as §1
The choice and dose of antipsychotic medication was based on the doctor's judgment. […] The treatment duration was 2-3 weeks. […] The 2-3 week duration permits the study of acute early effects.
Psychopathology was assessed on the Clinical Global Impressions (CGI) Scale at baseline and at the time of follow-up blood draws. Scores for the CGI Scale can range from 1 to 7, with higher scores indicating greater severity of illness (Guy (1975) ECDEU Assessment Manual for Psychopharmacology: Publication ADM 76-338. Washington, D.C.: US Department of Health, Education, and Welfare). An overall global change rating was also made at the time of the follow-up blood draw.

[4] = plasma, mole percentage data, post treatment compared with pretreatment
[5] = plasma, total lipid class data (nmol/g sample), post treatment compared with pretreatment
[6] = Study I, after 2-3 weeks treatment
[7] = Study II, about 2 weeks treatment
[8] = Study I, plasma, post-treatment vs pre-treatment
[9] = Study II, plasma, post vs pre-treatment

In the case of `O=C1Cc2cc(CCN3CCN(c4nsc5ccccc45)CC3)c(Cl)cc2N1` [ziprasidone], the “effect on serum lipids” value [1] is listed as “lipid-neutral” and the “effects on serum glucose” value [1] is listed as “minimal effects”.

In the case of `OCCOCCN1CCN(C2=Nc3ccccc3Sc3ccccc32)CC1` [quetiapine], the “effect on serum lipids” value [1] is listed as “discrepant data” and the “weight gain, mean increases during the first year of therapy” value [1] is listed as 6.1-12.3 lbs.

For `O=C(CCCN1CCC(O)(c2ccc(Cl)cc2)CC1)c1ccc(F)cc1` [haloperidol], the “risk of DM / metabolic effect” value [1] is listed as “metabolically neutral”.

With `Cc1cc2c(s1)Nc1ccccc1N=C2N1CCN(C)CC1` [Olanzapine, olanzapine] the “CE18:3n3 I/D” value [2, 4] was “I”, the “CE18:3n6 I/D” value [2, 4] was “I” and the “CE20:3n6 I/D” value [2, 4] was “I”. The “CE20:5n3 I/D” value [2, 4] was “I”, the “FA18:0 I/D” value [2, 4] was “I” and the “FA20:4n6 I/D” value [2, 4] was “I”. For the same compound, the “FA22.1n9 I/D” value [2, 4] was “I”, the “FASAT I/D” value [2, 4] was “I” and the “LY20:3n6 I/D” value [2, 4] was “I”. For the same compound, the “LY20:3n9 I/D” value [2, 4] was “I”, the “LY20:4n3 I/D” value [2, 4] was “I” and the “LY20:5n3 I/D” value [2, 4] was “I”. The “PC18:0 I/D” value [2, 4] was “I”, the “PC18:1n9 I/D” value [2, 4] was “I” and the “PC20:2n6 I/D” value [2, 4] was “I”. For the same compound, the “PC20:3n6 I/D” value [2, 4] was “I”, the “PC20:3n9 I/D” value [2, 4] was “I” and the “PC20:4n3 I/D” value [2, 4] was “I”. For the same compound, the “PC20:5n3 I/D” value [2, 4] was “I”, the “PC22:0 I/D” value [2, 4] was “I” and the “PC22:4n6 I/D” value [2, 4] was “I”. For the same compound, the “PC.n9 I/D” value [2, 4] was “I”, the “PE18:3n6 I/D” value [2, 4] was “I” and the “PE20:3n6 I/D” value [2, 4] was “I”. For the same compound, the “PE20:3n9 I/D” value [2, 4] was “I”, the “PE20:5n3 I/D” value [2, 4] was “I” and the “PE22:5n6 I/D” value [2, 4] was “I”. The “SP14:0 I/D” value [2, 4] was “I”, the “SP20:3n6 I/D” value [2, 4] was “I” and the “SPSAT I/D” value [2, 4] was “I”. The “TG14:0 I/D” value [2, 4] was “I”, the “TG20:1n9 I/D” value [2, 4] was “I” and the “TG20:3n6 I/D” value [2, 4] was “I”. The “TG20:4n3 I/D” value [2, 4] was “I”, the “FCLC I/D” value [2, 5] was “I” and the “PCLC I/D” value [2, 5] was “I”. For the same compound, the “PELC I/D” value [2, 5] was “I”, the “TGLC I/D” value [2, 5] was “I” and the “CGI Affective, Post” value [3, 6] was 1.5 ± 0.2. The “CGI Negative, Post” value [3, 6] was 2.2 ± 0.3, the “CGI Positive, Post” value [3, 6] was 2.9 ± 0.2 and the “CGI Change, Post” value ([3]; Study I) was 2.8 ± 0.2. The “CGI Affective, Post” value [3, 7] was 1.2 ± 0.2, the “CGI Negative, Post” value [3, 7] was 1 ± 0 and the “CGI Positive, Post” value [3, 7] was 2.4 ± 0.2. The “CGI Change, Post” value ([3]; Study II) was 3 ± 0.3, the “risk of DM / metabolic effect” value [1] was “higher risk” and the “weight gain, mean increases during the first year of therapy” value [1] was 15.0-26.0 lbs.

For `CN1CCN(C2=Nc3cc(Cl)ccc3Nc3ccccc32)CC1` [clozapine], the “risk of DM / metabolic effect” value [1] is given as “higher risk”.

With `O=C1CCc2ccc(OCCCCN3CCN(c4cccc(Cl)c4Cl)CC3)cc2N1` [Aripiprazole, aripiprazole] the PE class concentration [2, 8] was “increased”, the fatty acid concentrations [2, 8] was “very little change” and the lipid changes overall [2, 8] was “Minimal significant lipid changes”. The “n7 and n9 free fatty acids” value [2, 8] was “no change”, the “total lipid classes other than PE” value [2, 8] was “no other total lipid class changes” and the lipid changes overall ([2]; Study II (replication set), plasma, post vs pre-treatment) was “minimal lipid changes”. The fatty acid concentrations [2, 9] was “very little change”, the “other lipid classes (than PE)” value [2, 9] was “No significant changes” and the PE concentration ([2]; Study II, plasma, post-treatment vs pre-treatment) was “increased”. The “plasma fatty acid compositions” value ([2]; patients after treatment) was “affected minimally”, the “CE18:0 I/D” value [2, 4] was “I” and the “LY22.5n3 I/D” value [2, 4] was “I”. For the same compound, the “PC22:5n6 I/D” value [2, 4] was “I”, the “SP14:1n5 I/D” value [2, 4] was “I” and the “SP18:3n3 I/D” value [2, 4] was “I”. The “SPSAT I/D” value [2, 4] was “I”, the “TG18:0 I/D” value [2, 4] was “I” and the “TG22:2n6 I/D” value [2, 4] was “I”. For the same compound, the “PELC I/D” value [2, 5] was “I”, the “CGI Affective, Post” value [3, 6] was 1.5 ± 0.3 and the “CGI Negative, Post” value [3, 6] was 1.3 ± 0.3. For the same compound, the “CGI Positive, Post” value [3, 6] was 2.5 ± 0.3, the “CGI Change, Post” value ([3]; Study I) was 2.5 ± 0.3 and the “CGI Affective, Post” value [3, 7] was 1.4 ± 0.2. The “CGI Negative, Post” value [3, 7] was 1.6 ± 0.3, the “CGI Positive, Post” value [3, 7] was 2.5 ± 0.2 and the “CGI Change, Post” value ([3]; Study II) was 2.8 ± 0.2. For the same compound, the “effect on serum lipids” value [1] was “lipid-neutral” and the “effects on serum glucose” value [1] was “minimal effects”.
